The values that follow come from PMC9217967, “Simultaneous production and sustainable eutectic mixture based purification of narringinase with Bacillus amyloliquefaciens by valorization of tofu wastewater” (Scientific Reports, 2022).

Molecules are shown by their SMILES.

The test system of this test is T1, naringinase.
T1 construct: native enzyme from culture, NADES extractive fermentation, Sephadex G-15 and DEAE-Sepharose; a beta-glucosidase activity (prunin to naringenin) may be included
Description: Lineweaver-Burk; modified Davis assay, residual naringin at […] nm. In kind it is biochemical, Bacillus amyloliquefaciens. The settings on record: general assay: acetate buffer pH 4.2, 333 K, 60 min; printed unit is not a concentration; printed kcat/Km fits 1.5 × 10^-3 M.

In the case of `C[C@@H]1O[C@@H](O[C@H]2[C@H](Oc3cc(O)c4c(c3)O[C@H](c3ccc(O)cc3)CC4=O)O[C@H](CO)[C@@H](O)[C@@H]2O)[C@H](O)[C@H](O)[C@H]1O` [Naringin], the Michaelis constant (Km) (as a rule, the concentration of substrate that gives half-maximal velocity) worked out at 1500 µM.
